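Each compound was tested at five concentrations against cells in 96-well plates for 48 hours. Abbreviation: GI50, concentration required for 50% inhibition of growth. TGI: total growth inhibition.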
Experiments:
Experiment in all cases: NCI-60 cell line screen, 48 h
[1] = system: A498 renal
[2] = system: ACHN renal
[3] = system: HOP-62 NSCLC
[4] = system: MCF7 breast
[5] = system: MDA-MB-231 breast
[6] = system: NCI/ADR-RES ovarian
[7] = system: OVCAR-5 ovarian
[8] = system: TK-10 renal
[9] = system: KM12 colon
[10] = system: M14 melanoma

Row | Compound | TGI [1] [µM] | TGI [2] [µM] | TGI [3] [µM] | TGI [4] [µM] | TGI [5] [µM] | TGI [6] [µM] | TGI [7] [µM] | TGI [8] [µM] | TGI [9] [µM] | TGI [10] [µM] | GI50 [1] [µM] | GI50 [2] [µM] | GI50 [3] [µM] | GI50 [9] [µM] | GI50 [10] [µM] | GI50 [4] [µM] | GI50 [5] [µM] | GI50 [6] [µM] | GI50 [7] [µM] | GI50 [8] [µM]
1 | C/C(=N\NC(=S)N(C)C)c1nc2ncccc2[nH]1 | 69.5 | 14.7 | > 100 | > 100 | > 100 | 12.6 | > 100 | > 100 | – | – | – | – | – | – | – | – | – | – | – | –
2 | NNC(=O)CCSc1ccccc1 | > 100 | > 100 | > 100 | > 100 | > 100 | > 100 | > 100 | > 100 | > 100 | > 100 | – | – | – | – | – | – | – | – | – | –
3 | CCCn1cc2c(SC)nc(SC)nc2n1 | > 100 | > 100 | – | – | – | – | > 100 | > 100 | > 100 | > 100 | – | – | – | – | – | – | – | – | – | –
4 | COc1ccc(C(O)(c2ccccc2)c2nccc3ccccc23)cc1 (stereo not drawn) | – | > 100 | > 100 | > 100 | > 100 | > 100 | > 100 | > 100 | > 100 | 8.34 | – | – | – | – | – | – | – | – | – | –
5 | O=C(Nc1ccc(-n2cc(-c3ccncc3)c(-c3ccc(O)c(Cl)c3)n2)cc1)Nc1ccc(Cl)c(C(F)(F)F)c1 | 34.3 | 9.42 | 27.6 | 13.4 | 12.5 | 52.7 | 19.1 | 9.78 | 12.8 | 6.33 | 14.8 | 2.66 | 6.56 | 3.8 | 2.48 | 3.06 | 3.2 | 4.1 | 5.29 | 2.71

Source: PubChem BioAssay (NCI)
